System: KM12 cells
Test: Proliferation of KM12 cells (CellTiter-Glo)
Assay type: cell-based, human
Conditions: Homo sapiens, KM12, 72 h, Table 1; 72 hours; read-out: KM-12, IC50
Description: KM12 is a human colon cancer cell line in which NTRK1 is highly expressed, and gene fusion occurs with TPM3 to form TPM3-NTRK1. • [Test method]: Promega's CellTiter-Glo® Luminescent Cell Viability Assay kit was used to evaluate the inhibitory activity of the compounds on the proliferation of KM12 cells. • [Instrument]: Spectramax M3 multifunctional microplate reader from Molecular Devices. • [Test materials]: KM12 cell line (ATCC, item number CRL-12496), 96-well transparent flat-bottomed black-walled cell culture plate (Corning, item number #3603), RPMI-1640 media (GE, cat #SH30027.01), Fetal Bovine Serum FBS (Thermo Fisher, cat #10099-141), CellTiter-Glo® Luminescent Cell Viability Assay Kit (Promega, cat #G7572), PBS (Solarbio, cat #P1020), Trypsin (Thermo Fisher, cat #25200072), DMSO (Sigma, cat #D2650). • [Experimental procedure]: When resuscitating KM12 cells, the freezing tube was quickly shaken in a 37° C. water bath to melt within 1 minute. The thawed cell suspension was mixed uniformly with RPMI1640 medium containing 10% FBS, centrifuged at 1000 rpm for 5 minutes, and the supernatant discarded. 5 mL of complete medium (RPMI1640 medium with 10% FBS) was taken to resuspend the cell pellets, charged into a cell culture flask with a bottom area of 25 cm^2, and incubated in a cell incubator at 37° C., 95% humidity and 5% CO2. Cells were allowed to passage when the cell confluence rate reached about 80%. For cell passage, the old medium was discarded, and the cells were washed twice with PBS, and 0.5 mL trypsin was added to digest the cells. Upon dispersing into single cells and exfoliating from the bottom of the cell culture flask, 4.5 mL of new complete medium was added to terminate the digestion. After pipetting the cell suspension evenly, 1/5 of the cell suspension was kept and added with 4 mL of new complete medium, and after pipetting evenly, the cell flask was placed in the cell incubator for further culturing. Cell plating was performed when the cell confluence rate reached about 80% again. For cell plating, 1/5 of the cell suspension was kept for further culturing as in the cell passage method, and the remaining 4/5 of the cell suspension was placed in a 15 mL centrifuge tube, detected for cell viability by Trypan blue exclusion method to ensure that cell viability was above 90%. A cell suspension with a density of 3.33×10^4 viable cells/mL was prepared with complete medium, and 90 μL of such cell suspension was added to a 96-well cell culture plate to obtain a cell density of 3000 viable cells/mL in the cell culture plate. A control group containing no cells, no compound and only complete medium (i.e. culture medium control) and a control group containing no compound but containing cells (i.e. cell control) were set. The cell plate was placed in a cell incubator overnight.
The 10 mM compound stock solution in DMSO was first serially diluted with DMSO at a dilution factor of 3.16 times, to obtain 9 concentrations, and the 10th concentration was set as DMSO control without compound. Then, PBS was used to dilute the DMSO solutions of compounds of different concentrations, at a dilution factor of 100 times, so that the DMSO concentration in the compound solution of each concentration was 1%. Finally, 10 μL of each of the above solutions was added to the corresponding cell culture plate, so that the initial compound concentration was 10 μM, with the remaining concentrations being successively diluted at a dilution factor of 3.16 times, and the DMSO content in the cell culture plate was 0.1%.
The cell plate was placed in a cell incubator and cultured for 72 hours. For endpoint detection, the CellTiter-Glo reagent was melted, and the cell plate was moved to room temperature to equilibrate for 30 minutes, added with 100 μL of CellTiter-Glo for each well, and shaken on an orbital shaker for 5 minutes to fully lyse the cells. […]

Which IC50 does the source give for Cn1ncc2cc(Oc3ccc(NC(=O)c4ccc(C5CC5)n(-c5ccc(F)cc5)c4=O)cc3F)c(-c3cn[nH]c3)cc21 [Example 2, N-(3-fluoro-4-(1-methyl-6-(1H-pyrazol-4-yl)-1H-indazol-5-yloxy)phenyl)-1-(4-fluorophenyl)-6-cyclopropyl-2-oxo-1,2-dihydmpyridine-3-carboxamide] here?
Its IC50 is 9.1 nM.

Cc1ccc(C(=O)Nc2ccc(Oc3cc4cnn(C)c4cc3-c3cn[nH]c3)c(F)c2)c(=O)n1-c1ccc(F)cc1 [Merestinib, reference compound] was tested. Which IC50 did it give?
The IC50 was 8.7 nM.

Cc1ccc(C(=O)Nc2ccc(Oc3cc4cnn(C(C)C)c4cc3-c3cn[nH]c3)c(F)c2)c(=O)n1-c1ccc(F)cc1 [Example 4, N-(3-fluoro-4-(1-isopropyl-6-(1H-pyrazol-4-yl)-1H-indazol-5-yloxy)phenyl)-1-(4-fluorophenyl)-6-methyl-2-oxo-1,2-dihydmpyridine-3-carboxamide] was tested. Which IC50 did it give?
The IC50 was 31 nM.

With CCn1ncc2cc(Oc3ccc(NC(=O)c4ccc(C)n(-c5ccc(F)cc5)c4=O)cc3F)c(-c3cn[nH]c3)cc21 [Example 3, N-(3-fluoro-4-(1-ethyl-6-(1H-pyrazol-4-yl)-1H-indazol-5-yloxy)phenyl)-1-(4-fluorophenyl)-6-methyl-2-oxo-1,2-dihydmpyridine-3-carboxamide] as the molecule, how does the IC50 read?
Its IC50 is 16.7 nM.

Cn1ncc2cc(Oc3ccc(NC(=O)c4ccc(C(F)(F)F)n(-c5ccc(F)cc5)c4=O)cc3F)c(-c3cn[nH]c3)cc21 [Example 1, N-(3-fluoro-4-(1-methyl-6-(1H-pyrazol-4-yl)-1H-indazol-5-yloxy)phenyl)-1-(4-fluorophenyl)-6-trifluoromethyl-2-oxo-1,2-dihydmpyridine-3-carboxamide monomethanesulfonate] was tested. Which IC50 did it give?
The IC50 was 15.6 nM.

CC(C)c1ccc(C(=O)Nc2ccc(Oc3cc4cnn(C)c4cc3-c3cn[nH]c3)c(F)c2)c(=O)n1-c1ccc(F)cc1 [Example 6, N-(3-fluoro-4-(1-methyl-6-(1H-pyrazol-4-yl)-1H-indazol-5-yloxy)phenyl)-1-(4-fluorophenyl)-6-isopropyl-2-oxo-1,2-dihydropyridine-3-carboxamide] was tested. Which IC50 did it give?
The IC50 was 6.3 nM.

For CCc1ccc(C(=O)Nc2ccc(Oc3cc4cnn(C)c4cc3-c3cn[nH]c3)c(F)c2)c(=O)n1-c1ccc(F)cc1 [Example 5, N-(3-fluoro-4-(1-methyl-6-(1H-pyrazol-4-yl)-1H-indazol-5-yloxy)phenyl)-1-(4-fluorophenyl)-6-ethyl-2-oxo-1,2-dihydropyridine-3-carboxamide], which IC50 is on record?
Its IC50 is 5.1 nM.

Same assay, conditions: Homo sapiens, KM12, Table 1-1; separate test; read-out: KM-12, IC50

For COc1ccc(C(=O)Nc2ccc(Oc3cc4cnn(C)c4cc3-c3cn[nH]c3)c(F)c2)c(=O)n1-c1ccc(F)cc1 [Example 12, N-(3-fluoro-4-(1-methyl-6-(1H-pyrazol-4-yl)-1H-indazol-5-yloxy)phenyl)-1-(4-fluorophenyl)-6-methoxy-2-oxo-1,2-dihydropyridine-3-carboxamide], which IC50 is on record?
The IC50 was 16 nM.

With Cc1ccc(C(=O)Nc2ccc(Oc3cc4cnn(C)c4cc3-c3cn[nH]c3)c(F)c2)c(=O)n1-c1ccc(F)cc1 [Merestinib, reference compound] as the molecule, how does the IC50 read?
The IC50 was 33 nM.

CCn1ncc2cc(Oc3ccc(NC(=O)c4ccc(OC)n(-c5ccc(F)cc5)c4=O)cc3F)c(-c3cn[nH]c3)cc21 [Example 23, N-(3-fluoro-4-(1-ethyl-6-(1H-pyrazol-4-yl)-1H-indazol-5-yloxy)phenyl)-1-(4-fluorophenyl)-6-methoxy-2-oxo-1,2-dihydropyridine-3-carboxamide] was tested. Which IC50 did it give?
Its IC50 is 32 nM.

CCc1ccc(C(=O)Nc2ccc(Oc3cc4cnn(CC)c4cc3-c3cn[nH]c3)c(F)c2)c(=O)n1-c1ccc(F)cc1 [Example 18, N-(3-fluoro-4-(1-ethyl-6-(1H-pyrazol-4-yl)-1H-indazol-5-yloxy)phenyl)-1-(4-fluorophenyl)-6-ethyl-2-oxo-1,2-dihydropyridine-3-carboxamide] was tested. Which IC50 did it give?
The IC50 was 32 nM.

For CCn1ncc2cc(Oc3ccc(NC(=O)c4ccc(C5CC5)n(-c5ccc(F)cc5)c4=O)cc3F)c(-c3cn[nH]c3)cc21 [Example 19, N-(3-fluoro-4-(1-ethyl-6-(1H-pyrazol-4-yl)-1H-indazol-5-yloxy)phenyl)-1-(4-fluorophenyl)-6-cyclopropyl-2-oxo-1,2-dihydropyridine-3-carboxamide], which IC50 is on record?
Its IC50 is 32 nM.

Same assay, conditions: Homo sapiens, KM12, Table 1-2; separate test; read-out: KM-12, IC50

For CSc1ccc(C(=O)Nc2ccc(Oc3cc4cnn(C)c4cc3-c3cn[nH]c3)c(F)c2)c(=O)n1-c1ccc(F)cc1 [Example 11, N-(3-fluoro-4-(1-methyl-6-(1H-pyrazol-4-yl)-1H-indazol-5-yloxy)phenyl)-1-(4-fluorophenyl)-6-methylthio-2-oxo-1,2-dihydropyidine-3-carboxamide], which IC50 is on record?
The IC50 was 35 nM.

For Cc1ccc(C(=O)Nc2ccc(Oc3cc4cnn(C)c4cc3-c3cn[nH]c3)c(F)c2)c(=O)n1-c1ccc(F)cc1 [Merestinib, reference compound], which IC50 is on record?
Its IC50 is 59 nM.

How did the IC50 turn out when Cn1ncc2cc(Oc3ccc(NC(=O)c4ccc(OC5CC5)n(-c5ccc(F)cc5)c4=O)cc3F)c(-c3cn[nH]c3)cc21 [Example 15, N-(3-fluoro-4-(1-methyl-6-(1H-pyrazol-4-yl)-1H-indazol-5-yloxy)phenyl)-1-(4-fluorophenyl)-6-cyclopropoxy-2-oxo-1,2-dihydropyridine-3-carboxamide] was run?
The IC50 was 17 nM.

How did the IC50 turn out when CC(C)Oc1ccc(C(=O)Nc2ccc(Oc3cc4cnn(C)c4cc3-c3cn[nH]c3)c(F)c2)c(=O)n1-c1ccc(F)cc1 [Example 16, N-(3-fluoro-4-(1-methyl-6-(1H-pyrazol-4-yl)-1H-indazol-5-yloxy)phenyl)-1-(4-fluorophenyl)-6-isopropoxy-2-oxo-1,2-dihydropyridine-3-carboxamide] was run?
Its IC50 is 7 nM.

Same assay, conditions: Homo sapiens, KM12, Table 1-3; separate test; read-out: KM-12, IC50

How did the IC50 turn out when Cc1ccc(C(=O)Nc2ccc(Oc3cc4cnn(C)c4cc3-c3cn[nH]c3)c(F)c2)c(=O)n1-c1ccc(F)cc1 [Merestinib, reference compound] was run?
Its IC50 is 27 nM.

For CCn1ncc2cc(Oc3ccc(NC(=O)c4ccc(OC(C)C)n(-c5ccc(F)cc5)c4=O)cc3F)c(-c3cn[nH]c3)cc21 [Example 26, N-(3-fluoro-4-(1-ethyl-6-(1H-pyrazol-4-yl)-1H-indazol-5-yloxy)phenyl)-1-(4-fluorophenyl)-6-isopropoxy-2-oxo-1,2-dihydropyridine-3-carboxamide], which IC50 is on record?
Its IC50 is 18 nM.

Same assay, conditions: Homo sapiens, KM12, Table 9; read-out: KM12 cell proliferation inhibitory activity (IC50)

COc1ccc(C(=O)Nc2ccc(Oc3cc4cnn5c4c(c3-c3cn[nH]c3)CC5)c(F)c2)c(=O)n1-c1ccc(F)cc1 [Example 28, N-(4-((5-(1H-pyrazol-4-yl)-6,7-dihydropyrrolo[3,2,1-hi]-indazol-4-yl)oxy)-3-fluorophenyl)-1-(4-fluorophenyl)-6-methoxy-2-oxo-1,2-dihydropyidine-3-carboxamide] was tested. Which IC50 did it give?
Its IC50 is 56 nM.

CCOc1ccc(C(=O)Nc2ccc(Oc3cc4cnn5c4c(c3-c3cn[nH]c3)CC5)c(F)c2)c(=O)n1-c1ccc(F)cc1 [Example 32, N-(4-((5-(1H-pyrazol-4-yl)-6,7-dihydropyrrolo[3,2,1-hi]-indazol-4-yl)oxy)-3-fluorophenyl)-6-ethoxy-1-(4-fluorophenyl)-2-oxo-12-dihydropyridine-3-carboxamide] was tested. Which IC50 did it give?
The IC50 was 67 nM.

With Cc1ccc(C(=O)Nc2ccc(Oc3cc4cnn5c4c(c3-c3cn[nH]c3)CC5)c(F)c2)c(=O)n1-c1ccc(F)cc1 [Example 31, N-(4-((5-(1H-pyrazol-4-yl)-6,7-dihydropyrrolo[3,2,1-hi]-indazol-4-yl)oxy)-3-fluorophenyl)-1-(4-fluorophenyl)-6-methyl-2-oxo-1,2-dihydropyridine-3-carboxamide] as the molecule, how does the IC50 read?
Its IC50 is 71 nM.

Which IC50 does the source give for CC(C)Oc1ccc(C(=O)Nc2ccc(Oc3cc4cnn5c4c(c3-c3cn[nH]c3)CC5)c(F)c2)c(=O)n1-c1ccc(F)cc1 [Example 34, N-(4-((5-(1H-pyrazol-4-yl)-6,7-dihydropyrrolo[3,2,1-hi]-indazol-4-yl)oxy)-3-fluorophenyl)-1-(4-fluorophenyl)-6-isopropoxy-2-oxo-12-dihydropyrndine-3-carboxamide] here?
Its IC50 is 37 nM.

Same assay, conditions: Table 1-3; separate test; read-out: KM-12, IC50

With CCOc1ccc(C(=O)Nc2ccc(Oc3cc4cnn(CC)c4cc3-c3cn[nH]c3)c(F)c2)c(=O)n1-c1ccc(F)cc1 [Example 24, N-(3-fluoro-4-(1-ethyl-6-(1H-pyrazol-4-yl)-1H-indazol-5-yloxy)phenyl)-1-(4-fluorophenyl)-6-ethoxy-2-oxo-12-dihydropyridine-3-carboxamide] as the molecule, how does the IC50 read?
Its IC50 is 23 nM.

— patent publication US11952364B2, “TRK inhibitors useful as anticancer drugs” (TYLIGAND BIOSCIENCE (SHANGHAI) LIMITED, priority 2018, dated 2024)
